{"source": "patent US9957264B2", "about": "(Merck Sharp & Dohme Corp., priority 2013, dated 2018)", "key": {"[1]": {"target": "JAK1 (recombinant purified GST-tagged catalytic domain) (Homo sapiens (Human), UniProt P23458)", "sequence (P23458 875-1153)": "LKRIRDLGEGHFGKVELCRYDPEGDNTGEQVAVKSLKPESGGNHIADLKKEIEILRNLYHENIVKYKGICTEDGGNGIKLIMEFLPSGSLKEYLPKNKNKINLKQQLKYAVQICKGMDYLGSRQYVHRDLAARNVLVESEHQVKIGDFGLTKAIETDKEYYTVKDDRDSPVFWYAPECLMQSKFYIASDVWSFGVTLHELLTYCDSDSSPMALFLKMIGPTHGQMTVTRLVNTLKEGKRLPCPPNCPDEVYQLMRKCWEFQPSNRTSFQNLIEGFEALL", "experiment": "Jak Biochemical HTRF Assay (JAK1)", "conditions": "[ATP] 31.8 μM", "method_in_brief": "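Read-out is the 665/615 nm time-resolved FRET ratio from Eu-pY20 antibody and streptavidin-Dylight 650 bound to phosphorylated biotin-peptide. Reactions ran 120 min at room temperature after ATP start. Inhibition normalized to untreated controls gave IC50 via 4-parameter fit.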"}, "[2]": {"target": "JAK2 (recombinant purified GST-tagged catalytic domain) (Homo sapiens (Human), UniProt O60674)", "sequence (O60674 849-1124)": "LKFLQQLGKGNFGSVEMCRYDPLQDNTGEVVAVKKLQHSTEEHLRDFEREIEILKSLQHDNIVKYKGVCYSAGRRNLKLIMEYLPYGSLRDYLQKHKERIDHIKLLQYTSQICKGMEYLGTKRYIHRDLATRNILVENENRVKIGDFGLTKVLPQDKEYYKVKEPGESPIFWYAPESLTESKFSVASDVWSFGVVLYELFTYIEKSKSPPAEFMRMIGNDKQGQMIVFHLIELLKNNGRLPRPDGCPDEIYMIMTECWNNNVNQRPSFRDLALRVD", "experiment": "Jak Biochemical HTRF Assay (JAK2)", "conditions": "[ATP] 8.5 μM"}}, "data": [{"compound": "CC(c1ccc(Nc2nn([C@]3(CC#N)CC[C@@H](C(=O)OC(C)(C)C)OC3)c3cc[nH]c(=O)c23)cc1)N1CCCC1", "note": "(single isomer, unassigned) [Example 5-212, (2S,5S)-tert-butyl 5-(cyanomethyl)-5-(4-oxo-3-((4-((S or R)-1-(pyrrolidin-1-yl)ethyl)phenyl)amino)-4,5-dihydro-1H-pyrazolo [4,3-c]pyridin-1-yl) tetrahydro-2H-pyran-2-carboxylate]", "values": [{"measurement": "IC50", "setting": "[1]", "value": 0.22, "unit": "nM"}, {"measurement": "IC50", "setting": "[2]", "value": 0.15, "unit": "nM"}]}, {"compound": "CN(C)C(c1ccc(Nc2nn([C@]3(CC#N)CC[C@@H](C(=O)OC(C)(C)C)OC3)c3cc[nH]c(=O)c23)cc1)C(F)(F)F", "note": "(single isomer, unassigned) [Example 5-213, (2S,5S)-tert-butyl 5-(cyanomethyl)-5-(3-((4-((R or S)-1-(dimethylamino)-2,2,2-trifluoroethyl)phenyl)amino)-4-oxo-4,5-dihydro-1H-pyrazolo[4,3-c]pyridin-1-yl)tetrahydro-2H-pyran-2-carboxylate]", "values": [{"measurement": "IC50", "setting": "[1]", "value": 0.19, "unit": "nM"}, {"measurement": "IC50", "setting": "[2]", "value": 0.29, "unit": "nM"}]}, {"compound": "CN(C)C(c1ccc(Nc2nn([C@]3(CC#N)CC[C@@H](C(=O)OC(C)(C)C)OC3)c3cc[nH]c(=O)c23)cc1)C(F)(F)F", "note": "(single isomer, unassigned) [Example 5-214, (2S,5S)-tert-butyl 5-(cyanomethyl)-5-(3-((4-((R or S)-1-(dimethylamino)-2,2,2-trifluoroethyl)phenyl)amino)-4-oxo-4,5-dihydro-1H-pyrazolo[4,3-c]pyridin-1-yl)tetrahydro-2H-pyran-2-carboxylate]", "values": [{"measurement": "IC50", "setting": "[1]", "value": 0.2, "unit": "nM"}, {"measurement": "IC50", "setting": "[2]", "value": 0.32, "unit": "nM"}]}, {"compound": "CC(C)S(=N)(=O)c1ccc(Nc2nn([C@]3(CC#N)CCCOC3)c3cc[nH]c(=O)c23)cc1", "note": "(single isomer, unassigned) [Example 5-232, 2-((3S)-3-(4-oxo-3-((4-(propan-2-yl-(S or R)-sulfonimidoyl)phenyl)amino)-4,5-dihydro-1H-pyrazolo[4,3-c]pyridin-1-yl)tetrahydro-2H-pyran-3-yl)acetonitrile]", "values": [{"measurement": "IC50", "setting": "[1]", "value": 0.27, "unit": "nM"}, {"measurement": "IC50", "setting": "[2]", "value": 0.6, "unit": "nM"}]}, {"compound": "CC(C)S(=N)(=O)c1ccc(Nc2nn([C@]3(CC#N)CCCOC3)c3cc[nH]c(=O)c23)cc1", "note": "(single isomer, unassigned) [Example 5-233, 2-((3S)-3-(4-oxo-3-((4-(propan-2-yl-(S or R)-sulfonimidoyl)phenyl)amino)-4,5-dihydro-1H-pyrazolo[4,3-c]pyridin-1-yl)tetrahydro-2H-pyran-3-yl)acetonitrile]", "values": [{"measurement": "IC50", "setting": "[1]", "value": 0.36, "unit": "nM"}, {"measurement": "IC50", "setting": "[2]", "value": 0.4, "unit": "nM"}]}, {"compound": "N#CC[C@@]1(n2nc(Nc3ccc(C#N)cc3)c3c(=O)[nH]ccc32)CCOC1", "note": "(single isomer, unassigned) [Example 5-239, 4-({1-[(3R or 3S)-3-(cyanomethyl)tetrahydrofuran-3-yl]-4-oxo-4,5-dihydro-1H-pyrazolo[4,3-c]pyridin-3-yl}amino)benzonitrile]", "values": [{"measurement": "IC50", "setting": "[1]", "value": 2.29, "unit": "nM"}, {"measurement": "IC50", "setting": "[2]", "value": 16.7, "unit": "nM"}]}, {"compound": "N#CC[C@]1(n2nc(Nc3ccc(C#N)cc3)c3c(=O)[nH]ccc32)CCOC1", "note": "(single isomer, unassigned) [Example 5-240, 4-({1-[(3S or 3R)-3-(cyanomethyl)tetrahydrofuran-3-yl]-4-oxo-4,5-dihydro-1H-pyrazolo[4,3-c]pyridin-3-yl}amino)benzonitrile]", "values": [{"measurement": "IC50", "setting": "[1]", "value": 13, "unit": "nM"}, {"measurement": "IC50", "setting": "[2]", "value": 79.9, "unit": "nM"}]}, {"compound": "N#CC[C@@]1(n2nc(Nc3ccc(Cl)cc3)c3c(=O)[nH]ccc32)CCOC1", "note": "(single isomer, unassigned) [Example 5-241, [(3R or 3S)-3-{3-[(4-chlorophenyl)amino]-4-oxo-4,5-dihydro-1H-pyrazolo[4,3-c]pyridin-1-yl}tetrahydrofuran-3-yl]acetonitrile]", "values": [{"measurement": "IC50", "setting": "[1]", "value": 2.62, "unit": "nM"}, {"measurement": "IC50", "setting": "[2]", "value": 23.4, "unit": "nM"}]}, {"compound": "N#CC[C@]1(n2nc(Nc3ccc(Cl)cc3)c3c(=O)[nH]ccc32)CCOC1", "note": "(single isomer, unassigned) [Example 5-242, [(3S or 3R)-3-{3-[(4-chlorophenyl)amino]-4-oxo-4,5-dihydro-1H-pyrazolo[4,3-c]pyridin-1-yl}tetrahydrofuran-3-yl]acetonitrile]", "values": [{"measurement": "IC50", "setting": "[1]", "value": 14, "unit": "nM"}, {"measurement": "IC50", "setting": "[2]", "value": 130, "unit": "nM"}]}, {"compound": "N#CC[C@@]1(n2nc(Nc3cc(F)c4nccc(Cl)c4c3)c3c(=O)[nH]ccc32)CCOC1", "note": "(single isomer, unassigned) [Example 5-243, [(3R or 3S)-3-{3-[(4-chloro-8-fluoroquinolin-6-yl)amino]-4-oxo-4,5-dihydro-1H-pyrazolo[4,3-c]pyridin-1-yl}tetrahydrofuran-3-yl]acetonitrile]", "values": [{"measurement": "IC50", "setting": "[1]", "value": 6.62, "unit": "nM"}, {"measurement": "IC50", "setting": "[2]", "value": 100, "unit": "nM"}]}, {"compound": "N#CC[C@]1(n2nc(Nc3cc(F)c4nccc(Cl)c4c3)c3c(=O)[nH]ccc32)CCOC1", "note": "(single isomer, unassigned) [Example 5-244, [(3S or 3R)-3-{3-[(4-chloro-8-fluoroquinolin-6-yl)amino]-4-oxo-4,5-dihydro-1H-pyrazolo[4,3-c]pyridin-1-yl}tetrahydrofuran-3-yl]acetonitrile]", "values": [{"measurement": "IC50", "setting": "[1]", "value": 23, "unit": "nM"}, {"measurement": "IC50", "setting": "[2]", "value": 348, "unit": "nM"}]}, {"compound": "N#CC[C@@]1(n2nc(Nc3ccc4nccc(F)c4c3)c3c(=O)[nH]ccc32)CCOC1", "note": "(single isomer, unassigned) [Example 5-245, [(3R or 3S)-3-{3-[(4-fluoroquinolin-6-yl)amino]-4-oxo-4,5-dihydro-1H-pyrazolo[4,3-c]pyridin-1-yl}tetrahydrofuran-3-yl]acetonitrile]", "values": [{"measurement": "IC50", "setting": "[1]", "value": 3.93, "unit": "nM"}, {"measurement": "IC50", "setting": "[2]", "value": 42.3, "unit": "nM"}]}, {"compound": "N#CC[C@]1(n2nc(Nc3ccc4nccc(F)c4c3)c3c(=O)[nH]ccc32)CCOC1", "note": "(single isomer, unassigned) [Example 5-246, [(3S or 3R)-3-{3-[(4-fluoroquinolin-6-yl)amino]-4-oxo-4,5-dihydro-1H-pyrazolo[4,3-c]pyridin-1-yl}tetrahydrofuran-3-yl]acetonitrile]", "values": [{"measurement": "IC50", "setting": "[1]", "value": 16.8, "unit": "nM"}, {"measurement": "IC50", "setting": "[2]", "value": 172, "unit": "nM"}]}, {"compound": "CC(C)(C)N1Cc2cc(Nc3nn([C@@]4(CC#N)CCOC4)c4cc[nH]c(=O)c34)ccc2S1(=O)=O", "note": "(single isomer, unassigned) [Example 5-247, (S or R)-2-(3-(3-((2-(tert-butyl)-1,1-dioxido-2,3-dihydrobenzo[d]isothiazol-5-yl)amino)-4-oxo-4,5-dihydro-1H-pyrazolo[4,3-c]pyridin-1-yl)tetrahydrofuran-3-yl)acetonitrile]", "values": [{"measurement": "IC50", "setting": "[1]", "value": 0.11, "unit": "nM"}, {"measurement": "IC50", "setting": "[2]", "value": 2.24, "unit": "nM"}]}, {"compound": "CC(C)(C)N1Cc2cc(Nc3nn([C@]4(CC#N)CCOC4)c4cc[nH]c(=O)c34)ccc2S1(=O)=O", "note": "(single isomer, unassigned) [Example 5-248, (R or S)-2-(3-(3-((2-(tert-butyl)-1,1-dioxido-2,3-dihydrobenzo[d]isothiazol-5-yl)amino)-4-oxo-4,5-dihydro-1H-pyrazolo[4,3-c]pyridin-1-yl)tetrahydrofuran-3-yl)acetonitrile]", "values": [{"measurement": "IC50", "setting": "[1]", "value": 0.39, "unit": "nM"}, {"measurement": "IC50", "setting": "[2]", "value": 9.56, "unit": "nM"}]}, {"compound": "CC(C)(C)S(=O)(=O)c1ccc(Nc2nn([C@@]3(CC#N)CCOC3)c3cc[nH]c(=O)c23)cc1", "note": "(single isomer, unassigned) [Example 5-249, (S or R)-2-(3-(3-((4-(tert-butylsulfonyl)phenyl)amino)-4-oxo-4,5-dihydro-1H-pyrazolo[4,3-c]pyridin-1-yl)tetrahydrofuran-3-yl)acetonitrile]", "values": [{"measurement": "IC50", "setting": "[1]", "value": 1.13, "unit": "nM"}, {"measurement": "IC50", "setting": "[2]", "value": 2.43, "unit": "nM"}]}, {"compound": "CC(C)(C)S(=O)(=O)c1ccc(Nc2nn([C@]3(CC#N)CCOC3)c3cc[nH]c(=O)c23)cc1", "note": "(single isomer, unassigned) [Example 5-250, (R or S)-2-(3-(3-((4-(tert-butylsulfonyl)phenyl)amino)-4-oxo-4,5-dihydro-1H-pyrazolo[4,3-c]pyridin-1-yl)tetrahydrofuran-3-yl)acetonitrile]", "values": [{"measurement": "IC50", "setting": "[1]", "value": 4.34, "unit": "nM"}, {"measurement": "IC50", "setting": "[2]", "value": 12.1, "unit": "nM"}]}]}
